Reference: patent US6808884B2, “Methods and compositions for detecting polynucleotide duplex damage and errors” (California Institute of Technology, priority 2000, dated 2004)

Experiments:
[1] = system: DNA duplexes (SEQ ID NO:1 / SEQ ID NO:2) having base-pair mismatches; assay: Photocleavage of 17mer DNA duplexes with varied X-Y base pair, 365 nm irradiation, PAGE analysis; type: biochemical; conditions: duplex 10 μM, complex 1 μM, pH 7.0, 13 min at 365 nm
Method: A set of DNA duplexes was prepared having the following sequence: 3′-[…]-5′(SEQ ID NO:1)
5′-[…]-3′(SEQ ID NO:2),
where X and Y were varied to provide A-T, G-C, and the following mismatches: C-C, C-A, T-T, A-A, T-C, T-G, G-A, and G-G. All oligonucleotides were prepared using standard phosphoramidite chemistry, and were purified by reverse phase HPLC. The oligonucleotides were 5′ end-labeled with γ-^32P ATP (Dupont-NEN) and T4 polynucleotide kinase (New England Biolabs).
Duplexes (10 μM) were incubated with Δ or Λ [Rh(bpy)2 (chrysi)]^3+(1 μM in 50 mM Tris, 20 mM NaOAc, 18 mM NaCl, pH 7.0) for 11 minutes, then irradiated for 13 min at 365 nm using an Oriel HgXe arc lamp. The products were analyzed by PAGE (20%, denaturing), imaged using a Molecular Dynamics Phosphorimager. […] Here, cleavage occurred to the 3′ side of the mismatch site. […] Unlike the other recognized mismatches, the cleavage 3′ to C-A results in two products having different gel mobility, possibly the result of chemically different polymer termini. The cleavage of A-A was also distinctive.

[2] = system: DNA duplexes with mismatch-sequence context combinations; assay: DNA photocleavage with bases 5′ and 3′ of the mismatch site systematically changed; type: biochemical; conditions: flanking bases 5′ and 3′ of the mismatch systematically changed

Substance | mismatch pairs cleaved among C-C, C-A, T-T, A-A, T-C, T-G, G-A, G-G [1] | photocleavage at A-A mismatch, relative to the other enantiomer [1] | photocleavage at A-A mismatch, at the A-A site itself [1] | photocleavage at A-A mismatch, base 3′ to the site [1] | photocleavage at C-A mismatch ([1]; at the mismatched C and the neighbouring base 3′) | photocleavage intensity at C-C mismatch ([1]; cleavage 3′ of the mismatch site) | photocleavage intensity at T-C mismatch ([1]; compared with C-C) | photocleavage intensity at T-T mismatch ([1]; compared with C-C) | mismatch-sequence context combinations at which photocleavage was observed (count) [2] | mismatch-sequence context combinations at which photocleavage was observed (share) [2] [%]
Λ[Rh(bpy)2 (chrysi)]Cl3 [Λ enantiomer] | A-A mismatch is the only pair cleaved | weaker cleavage than the Δ enantiomer | – | – | – | – | – | – | – | –
Δ-[Rh(bpy)2 (chrysi)]Cl3 [Δ-[Rh(bpy)2 (chrysi)]^3+] | – | – | small amount of cleavage | strong cleavage | Strong cutting | strongest cleavage intensity | less intense cleavage | less intense cleavage | 83 of 104 | 80
